Results: US5885994A, “Tetrahydroquinoxaline dopamine D4 receptor antagonists” (Warner-Lambert Company, priority 1998, dated 1999)
Read-outs that look alike come from different tables or passages of the source.

Key:
[1] = target: T1, human D4.2 receptor (Homo sapiens, UniProt P21917, DEL265-296); assay: Inhibition of [3H]spiperone binding to human dopamine D4.2 receptors; settings: human D4.2, CHO K1 membranes
T1 construct: expressed in transfected cells; host or cells: CHO K1 cells
T1 sequence (P21917 with tags, fused parts or gaps DEL265-296): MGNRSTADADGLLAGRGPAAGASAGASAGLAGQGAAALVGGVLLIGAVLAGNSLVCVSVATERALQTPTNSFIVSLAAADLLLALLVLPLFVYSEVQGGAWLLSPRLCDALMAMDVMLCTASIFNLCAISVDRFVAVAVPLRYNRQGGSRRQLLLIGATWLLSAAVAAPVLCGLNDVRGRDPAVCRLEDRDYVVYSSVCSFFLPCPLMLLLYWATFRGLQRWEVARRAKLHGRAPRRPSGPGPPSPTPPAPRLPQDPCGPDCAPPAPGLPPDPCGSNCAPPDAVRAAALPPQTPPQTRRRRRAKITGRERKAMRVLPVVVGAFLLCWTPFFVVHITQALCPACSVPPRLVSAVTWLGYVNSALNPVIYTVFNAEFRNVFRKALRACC
Text: (§1) A cell line expressing human dopamine D2 (Long form) receptors was purchased from Oregon Health Sciences University, Portland, Oreg. The D2 receptor cDNA was subcloned into an expression vector, pRc/CMV. The plasmids were transfected by electroporation into CHO K1 cells. A single stable transfectant, resistant to the antibiotic 418, was isolated and selected for use in the binding studies. For D4 binding, CHO K1 cells stably transfected to express the human recombinant dopamine D4.2 receptor subtype, as described by Shih, et al., "The expression and functional characterization of human dopamine D4.2 receptor in CHO K1 cells," Soc. Neurosci., 1995;21(Part 1):621.
(§2) CHO K1 cells expressing either human D2 and D4.2 receptors were grown in 162 cm^2 culture flasks in F12 medium (Gibco Laboratories, Grand Island, N.Y.) supplemented with 10% fetal bovine serum (FBS, Hyclone, Logan, Utah) in an atmosphere of 5% CO2 /95% air at 37° C. Cells were grown until confluent, after which growth medium was removed and replaced with 0.02% ethylene diamine tetracetate (EDTA) in a phosphate-buffered saline solution (Sigma Chemical Co., St. Louis, Mo.) and scraped from the flasks. The cells were centrifuged at about 1000×g for 10 minutes at […] and then resuspended in TEM buffer (25 mM Tris-HCl, pH 7.4, 5 mM EDTA, and 6 mM MgCl2) for D2 or the D4.2 buffer (50 mM Tris-HCl, pH 7.4, 5 mM EDTA, 1.5 mM CaCl2, 5 mM KCl, and 120 mM NaCl) and homogenized. The membranes were pelleted by centrifugation at 20,000×g at […] for 20 minutes. Then the pellets were resuspended in appropriate buffer at 1 mL/flask and stored at -70° C. until used in the receptor binding assay.
(§3) Receptor Binding Assays: D2,D4.2 Dopamine Receptors
(§4) After 60 minutes incubation at 25° C., the incubations were terminated by rapid filtration through Whatmann F/B lass fibre filters (soaked for 1 hour in 0.5% polyethylenimine) on a cell harvester, with three washes of 1 mL ice-cold buffer. Individual filter disks containing the bound ligand were placed in counting vials with 4 mL of scintillation fluid (Ready Gel, Beckman Instrument Inc., Fullerton, Calif.) and then counted in a Beckman LS-6800 liquid scintillation counter at an efficiency of 45%. Nonspecific binding was defined in presence of 1 mM of haloperidol.
(§5) Saturation and competition binding data were analyzed using an iterative nonlinear least-square curve-fitting Ligand program. In competition experiments, apparent Ki values were calculated from IC50 values by method of Cheng and Prusoff, "Relationship between the inhibition constant (Ki) and the concentration of inhibitor which causes 50% inhibition (IC50) of an enzymatic reaction," Biochem. Pharmacol., 1973;22:3099-3108. Experimental compounds were made up as stock solutions in dimethyl sulfoxide (DMSO). […] Each observation was carried out in triplicate. To allow these calculations, Ki values were measured for the interaction of various ligands with the receptor. […]

[2] = target: human D2 receptor (Homo sapiens, UniProt P14416); assay: Inhibition of [3H]spiperone binding to human dopamine D2 receptors; settings: human D2 (Long form), CHO K1 membranes
Sequence of human D2 receptor (P14416 whole entry): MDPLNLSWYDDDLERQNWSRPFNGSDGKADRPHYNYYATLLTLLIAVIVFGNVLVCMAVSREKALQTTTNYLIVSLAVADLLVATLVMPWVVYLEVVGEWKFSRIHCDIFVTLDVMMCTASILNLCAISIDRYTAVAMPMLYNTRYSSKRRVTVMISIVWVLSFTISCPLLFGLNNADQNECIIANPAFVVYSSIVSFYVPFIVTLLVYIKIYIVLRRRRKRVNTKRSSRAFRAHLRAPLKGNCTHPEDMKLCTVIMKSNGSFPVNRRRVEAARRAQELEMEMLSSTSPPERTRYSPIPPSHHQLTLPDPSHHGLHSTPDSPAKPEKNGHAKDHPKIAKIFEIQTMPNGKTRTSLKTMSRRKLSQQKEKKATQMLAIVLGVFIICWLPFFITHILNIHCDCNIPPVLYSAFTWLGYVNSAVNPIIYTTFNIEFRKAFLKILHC
Text: as §1, §2, §3, §4, §5

[3] = target: T2, human DA D4.2 receptor (Homo sapiens, UniProt P21917, DEL265-296); assay: [3H]Thymidine uptake assay (block of quinpirole stimulation in CHO pro-5 cells transfected with human DA D4.2 receptor); format: cell-based; settings: human D4.2, quinpirole-stimulated uptake
T2 construct: expressed in transfected cells
T2 sequence (P21917 with tags, fused parts or gaps DEL265-296): T1 sequence (P21917 with tags, fused parts or gaps DEL265-296)
Method: Compounds were tested for their ability to bind to dopamine (DA) receptors as measured by their inhibition of [^3 H]spiperone binding to the human D2, and D4.2 receptors (Pugsley, et al., 1995). The ability of test compounds to block the stimulation of [^3 H]thymidine uptake in CHO pro-5 cells transfected with human DA D4.2 receptor cDNA caused by the DA agonist quinpirole was employed as an in vitro measure of DA receptor antagonist activity (Pugsley, et al., 1995). The effects of compounds on synthesis rates of rat brain catecholamines were estimated by measuring the accumulation of [3-(3,4-dihydroxyphenyl)-L-alanine (DOPA) after administration of the L-aromatic amino acid decarboxylase inhibitor, NSD 1015 (Pugsley, et al., 1995).
[^3 H]Thymidine Uptake Assay
The effects of test compounds on [^3 H]thymidine uptake were carried out essentially as described by Pugsley, et al., 1995. CHO p-5 cells transfected with human D4.2 cDNA were seeded into 96-well plates at a density of about 5000 cells/well and were grown at 37° C. in a minimum essential medium (aMEM, Gibco) with 10% calf serum for 2 days. The wells were then rinsed three times with serum-free media. Fresh media ([…]) was added along with […] of test compound in water or vehicle alone. Eight wells of each plate received […] of aMEM with 10% fetal calf serum. After culture for 16 to 17 hours, [3H]thymidine ([…]) was added for 4 hours. The cells were trypsinized and harvested onto filter mats with a 96-well Brandel cell harvester. The filters were counted in a Beta-Plate scintillation counter.

[4] = system: amphetamine-stimulated locomotion; assay: Blockade of amphetamine-stimulated locomotion in rats; format: in vivo, rat
Text: PROTOCOL FOR THE BLOCKADE OF AMPHETAMINE-STIMULATED LOCOMOTION IN RATS
The blockade of amphetamine-stimulated locomotion procedure is a modification of the Locomotor Activity Protocol in the Omnitech Digiscan Activity Monitors described above. The blockade of amphetamine-stimulated locomotion procedure uses the central nervous system stimulant d-amphetamine to assess antipsychotic activity of dopaminergic agents.
Male Sprague-Dawley rats (Harlan Labs) were used for these studies. Drugs were dissolved in saline or water, and administered either orally (PO) or intraperitoneally (IP) in volumes of 5 mL/kg. Saline control rats and amphetamine (0.5 mg/kg IP) control rats are included with each study (n=4-6 rats per treatment group). For the IP studies, amphetamine is given 20 minutes prior to the drug, after which a 30 minute locomotor activity test is conducted. For the oral study, drug is dosed 30 minutes prior to the test, while amphetamine is given 15 minutes prior to the test, which allows time for oral absorption. Locomotor activity (centimeters travelled per 30 minute test) is measured in 16"×16" open chambers. Amphetamine generally produces a 2- to 3-fold increase in locomotion over saline controls. Drug effects are reported as percent reversal of amphetamine-stimulated locomotion. Significant changes in amphetamine-stimulated locomotion, relative to amphetamine treated controls, were determined by t-test. The dose which would reverse amphetamine-stimulated locomotion by 50% (ED50) and the 95% confidence limits were estimated by regression analysis.

[5] = system: synthesis rates of rat brain catecholamines; settings: ip
Method: Test compounds were administered to rats i.p. 30 minutes before the injection of the L-aromatic amino acid decarboxylase inhibitor, NSD 1015 (100 mg/kg i.p.). Rats were sacrificed by decapitation 30 minutes later. The striatum and mesolimbic regions were rapidly dissected from the brains and stored at -70° C. until assayed. Synthesis rates of rat brain catecholamines were estimated by measuring the accumulation of the DA precursor DOPA after NSD 1015 administration by HPLC with electrochemical detection (Puglsey, et al., 1995). Each value represents the mean of four determinations and is expressed as a percent of the control values.

[6] = system: apomorphine-induced disruption of prepulse inhibition; settings: rat, background statement; cited from earlier work

Cc1ccc(N2CCN(Cc3ccc4c(c3)NCCN4)CC2)cc1Cl [Example 1, 6-[4-(3-Chloro-4-methylphenyl)piperazin-1-ylmethyl]-1,2,3,4-tetrahydroquinoxaline]
IC50 [1]: 0.0039 µM
IC50 [2]: 1.81 µM
IC50 [3]: 0.01 µM
blockade of amphetamine-stimulated locomotion (result in words) ([4]; rat, 3, 10, and 30 mg/kg IP): dose-dependent blockade
ED50 ([4]; rat, IP, read-out: blockade of amphetamine-stimulated locomotion ED50): 9.1 mg/kg
ED50 ([4]; rat, PO, read-out: oral blockade of amphetamine-stimulated locomotion ED50): > 30 mg/kg
DA Synthesis in Rat Hippocampus [5]: +62% of the control values
DA Synthesis in Rat Striatum [5]: -9% of the control values

c1ccc(N2CCN(Cc3ccc4c(c3)NCCN4)CC2)cc1 [Example 3, 6-(4-Phenylpiperazin-1-ylmethyl)-1,2,3,4-tetrahydroquinoxaline]
IC50 [1]: 0.05 µM
IC50 [2]: 3.2 µM

COc1ccc(N2CCN(Cc3ccc4c(c3)NCCN4)CC2)cc1 [Example 4, 6-[4-(4-Methoxyphenyl)piperazin-1-ylmethyl]-1,2,3,4-tetrahydroquinoxaline]
IC50 [1]: 0.0393 µM

Clc1ccc(N2CCN(Cc3ccc4c(c3)NCCN4)CC2)cc1 [Example 5, 6-[4-(4-Chlorophenyl)piperazin-1-ylmethyl]1,2,3,4-tetrahydroquinoxaline]
IC50 [1]: 0.006 µM
IC50 [3]: 0.019 µM
DA Synthesis in Rat Striatum [5]: +20% of the control values

Fc1ccc(N2CCN(Cc3ccc4c(c3)NCCN4)CC2)cc1 [Example 6, 6-[4-(4-Fluorophenyl)piperazin-1-ylmethyl]-1,2,3,4-tetrahydroquinoxaline]
IC50 [1]: 0.0506 µM

Clc1ccc(N2CCN(Cc3ccc4c(c3)NCCN4)CC2)cc1Cl [Example 7, 6-[4-(3,4-Dichlorophenyl)piperazin-1-ylmethyl]-1,2,3,4-tetrahydroquinoxaline]
IC50 [1]: 0.005 µM
IC50 [2]: 1.65 µM
blockade of amphetamine-stimulated locomotion ([4]; rat, 30 mg/kg PO): 100%
DA Synthesis in Rat Striatum [5]: +23% of the control values

Cc1ccc(N2CCN(Cc3ccc4c(c3)NCCN4)CC2)cc1 [Example 8, 6-(4-p-Tolylpiperazin-1-ylmethyl)-1,2,3,4-tetrahydroquinoxaline]
IC50 [1]: 0.0111 µM
IC50 [3]: 0.0082 µM
DA Synthesis in Rat Striatum [5]: +39% of the control values

Cc1cccc(N2CCN(Cc3ccc4c(c3)NCCN4)CC2)c1 [Example 9, 6-(4-m-Tolylpiperazin-1-ylmethyl)-1,2,3,4-tetrahydroquinoxaline]
IC50 [1]: 0.0363 µM

Cc1ccnc(N2CCN(Cc3ccc4c(c3)NCCN4)CC2)c1 [Example 10, 6-[4-(4-Methylpyridin-2-yl)piperazin-1-ylmethyl]-1,2,3,4-tetrahydroquinoxaline]
IC50 [1]: 0.035 µM

FC(F)(F)c1cccc(N2CCN(Cc3ccc4c(c3)NCCN4)CC2)c1 [Example 11, 6-[4-(3-Trifluoromethylphenyl)piperazin-1-ylmethyl]-1,2,3,4-tetrahydroquinoxaline]
IC50 [1]: 0.022 µM
IC50 [2]: 0.683 µM

CC(N)Cc1ccccc1 (stereo not drawn) [amphetamine]
blocking of PPI by DA agonists (result in words) [6]: can be blocked

CN1CCc2cccc3c2[C@H]1Cc1ccc(O)c(O)c1-3 [apomorphine]
blocking of PPI by DA agonists (result in words) [6]: can be blocked

CN1CCN(C2=Nc3cc(Cl)ccc3Nc3ccccc32)CC1 [clozapine]
antagonism of DA agonist-induced disruption of PPI (result in words) [6]: can be blocked

O=C(CCCN1CCC(O)(c2ccc(Cl)cc2)CC1)c1ccc(F)cc1 [haloperidol]
antagonism of DA agonist-induced disruption of PPI (result in words) [6]: can be antagonized
